Laboratory results taken from patent US10793582B2, “Bicyclic heterocyclic compound” (MITSUBISHI TANABE PHARMA CORPORATION, priority 2015, dated 2020).
Where a name gives a salt, the structure may show the parent alone.

molecular target: human recombinant KAT-II (Homo sapiens (Human), UniProt Q8N5Z0); test: KAT-II inhibitory test; format: biochemical; details: 3.0 μmol/L kynurenine, 37° C. for 1 hr, kynurenic acid by HPLC
Protocol: The compounds described in the above-mentioned Examples were used for the KAT-II inhibitory test.
Human recombinant KAT-II was prepared as follows.
His tag and maltose binding protein tag were added to the N-terminal of a gene encoding human KAT-II (Genbank accession number: AF481738.1), and the obtained gene was incorporated into pET32 (Merck Nihon Millipore), which is an Escherichia coli expression vector. Human recombinant KAT-II produced by BL21(DE3) Escherichia coli (Merck Nihon Millipore, 69450) transformed using the plasmid was purified using an amylose resin column (New England Biolabs, #800-21 L).
The inhibitory action of the test compound on human recombinant KAT-II was determined by the following method.
To a reaction mixture (45 μL) containing 3.0 μmol/L kynurenine, 10 μmol/L pyridoxal phosphate, 2.0 ng/μL human recombinant KAT-II, and 150 mmol/L tris(hydroxymethyl)aminomethane-acetate buffer (pH 8.0) was added a 10% dimethyl sulfoxide solution (5 μL) of each test compound prepared, and the mixture was reacted at 37° C. for 1 hr. After the reaction, 50% trichloroacetic acid (5 μL) was added to terminate the reaction.
The resultant kynurenic acid was quantified as follows by high performance liquid chromatography. An enzyme reaction mixture was separated by an octadecylsilane reversed-phase column (SC-50DS, Eicom Corporation; mobile phase: 250 mmol/L zinc acetate, 50 mmol/L sodium acetate, and 5.0% acetonitrile (pH 6.2)) incubated at 30° C., and kynurenic acid was quantified using a fluorescence detector (RF-20Axs, Shimadzu Corporation) at excitation wavelength 354 nm, detection wavelength 460 nm. The analytical curve was drawn every time by an external standard method. Each test compound was tested by dual measurement at each concentration. The kynurenic acid level in the presence of a test compound at each concentration was converted into % relative to kynurenic acid resulting from a reaction with an enzyme alone as 100%, and the obtained values were fitted to S-curve to determine IC50.

human recombinant KAT-II, sequence (Q8N5Z0 30-425): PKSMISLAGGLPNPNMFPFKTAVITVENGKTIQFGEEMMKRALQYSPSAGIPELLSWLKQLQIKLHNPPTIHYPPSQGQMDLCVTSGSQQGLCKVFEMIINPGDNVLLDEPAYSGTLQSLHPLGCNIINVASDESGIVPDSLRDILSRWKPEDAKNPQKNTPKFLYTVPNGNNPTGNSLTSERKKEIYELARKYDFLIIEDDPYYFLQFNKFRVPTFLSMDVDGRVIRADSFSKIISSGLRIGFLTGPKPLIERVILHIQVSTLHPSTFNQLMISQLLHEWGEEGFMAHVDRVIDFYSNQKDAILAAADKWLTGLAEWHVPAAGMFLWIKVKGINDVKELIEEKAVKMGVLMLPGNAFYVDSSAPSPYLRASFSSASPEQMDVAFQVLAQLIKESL

| IC50 [µM] | Compound |
| --- | --- |
| 0.035 | O=C(NCc1ccccc1)[C@H]1CCCN1c1nc2nc(CC3CCOCC3)nc(C3CC3)c2s1 [Example 46] |
| 0.2 | CCc1nc(-n2nc(C)cc2C)nc2nc(N3CCC[C@@H]3C(=O)NCc3ccccc3)sc12 [Example 103, (R)—N-benzyl-1-[5-(3,5-dimethyl-1H-pyrazol-1-yl)-7-ethyl[1,3]thiazolo[4,5-d]pyrimidin-2-yl]pyrrolidine-2-carboxamide] |
| 0.27 | O=C(NCc1ccccc1)[C@H]1CCCN1c1nc2ncc(OC3COC3)cc2s1 [Example 151] |
| 0.076 | O=C(NCc1ccccc1)[C@H]1CCCN1c1nc2nc(-c3ccncc3)nc(C3CC3)c2s1 [Example 49] |
| 0.095 | CCOc1nc(C2CCOCC2)nc2nc(N3CCC[C@@H]3C(=O)NCc3ccccc3)sc12 [Example 75] |
| 0.23 | COCc1nc(C(F)(F)F)c2sc(N3CCC[C@@H]3C(=O)NCc3ccccc3)nc2n1 [Example 56] |
| 0.39 | COCCc1ncnc2nc(N3CCC[C@@H]3C(=O)NCc3ccccc3)sc12 [Example 32] |
| 0.27 | CC(C)(C)c1ncnc2nc(N3CCC[C@@H]3C(=O)NCc3ccccc3)sc12 [Example 30] |
| 0.64 | COCc1cnc2nc(N3CCC[C@@H]3C(=O)NCc3ccccc3)sc2c1 [Example 159] |
| 0.064 | C[C@H](C(=O)NCc1ccccc1)N(C)c1nc2ncnc(C3CC3)c2s1 [Example 36, (R)—N-benzyl-2-[N′-(7-cyclopropyl[1,3]thiazolo[4,5-d]pyrimidin-2-yl)-N′-methylamino]propionamide] |
| 0.075 | O=C(NCc1ccccc1)[C@H]1CCCN1c1nc2nc(CN3CCOCC3)nc(C3CC3)c2s1 [Example 98] |
| 0.11 | Cc1nc(-c2c(C)cnc3nc(N4CCC[C@@H]4C(=O)NCc4ccccc4)sc23)no1 [Example 149] |
| 0.6 | COCc1ncnc2nc(N3CCC[C@@H]3C(=O)NCc3ccccc3)sc12 [Example 33] |
| 0.012 | O=C(NCc1ccccc1)[C@H]1CCCN1c1nc2ncnc(Oc3ccccc3)c2s1 [Example 66] |
| 0.033 | O=C(NCc1ccccc1)[C@H]1CCCN1c1nc2ncc(C3CC3)nc2s1 [Example 192, (R)—N-benzyl-1-(6-cyclopropyl[1,3]thiazolo[4,5-b]pyrazin-2-yl)pyrrolidine-2-carboxamide] |
| 0.71 | O=C(NCc1ccccc1)[C@H]1CCCN1c1nc2ncc(C(F)(F)F)cc2s1 [Example 124] |
| 0.53 | Cc1cc2sc(N3CCC[C@@H]3C(=O)NC3(c4ccccc4)CC3)nc2nc1C [Example 120] |
| 2.1 | CN(c1nc2ncnc(C3CC3)c2s1)C(C)(C)C(=O)NCc1ccccc1 [Example 92] |
| 0.92 | CN(C)c1nc(C2CC2)c2sc(N3CCC[C@@H]3C(=O)NCc3ccccc3)nc2n1 [Example 106, (R)—N-benzyl-1-[7-cyclopropyl-5-(N,N-dimethylamino)[1,3]thiazolo[4,5-d]pyrimidin-2-yl]pyrrolidine-2-carboxamide] |
| 0.19 | CN(C)Cc1cnc2nc(N3CCC[C@@H]3C(=O)NCc3ccccc3)sc2c1C1CC1 [Example 176, (R)—N-benzyl-1-{7-cyclopropyl-6-[(dimethylamino)methyl][1,3]thiazolo[4,5-b]pyridin-2-yl}pyrrolidine-2-carboxamide hydrochloride] |
| 0.012 | CCNc1nc(C(F)(F)F)nc2nc(N3CCC[C@@H]3C(=O)NCc3ccccc3)sc12 [Example 67] |
| 0.21 | CN(C)c1cnc2nc(N3CCC[C@@H]3C(=O)NCc3ccccc3)sc2n1 [Example 191] |
| 0.35 | C[C@H](C(=O)NCc1ccccc1)N(Cc1ccccn1)c1nc2ncnc(C3CC3)c2s1 [Example 39] |
| 0.32 | COCc1ccnc2nc(N3CCC[C@@H]3C(=O)NCc3ccccc3)sc12 [Example 141] |
| 0.093 | Cc1nc(-c2cnc3nc(N4CCC[C@@H]4C(=O)N[C@H](C)c4ccccc4)sc3c2)no1 [Example 148, (R)-1-[6-(5-methyl-1,2,4-oxadiazol-3-yl)[1,3]thiazolo[4,5-b]pyridin-2-yl]-N-[(1R)-1-phenylethyl]pyrrolidine-2-carboxamide] |
